Data as given in PMC11428279, “Exploring Structure–Activity Relationships and Modes of Action of Laterocidine” (ACS Central Science, 2024).
Bridge positions count the residues as written; N and C are the ends. Square brackets hold non-standard residues; d marks the D form. Peptide text beside a SMILES is read from it. * marks the point of attachment. Pen = CC(C)(S)[C@H](N)C(=O)O; dOrn = NCCC[C@@H](N)C(=O)O; Nonanoyl = CCCCCCCCC(=O)*; Orn = NCCC[C@H](N)C(=O)O; Dap = NC[C@H](N)C(=O)O

Tested on: Gram-negative strains of P. aeruginosa, A. baumannii, K. pneumoniae, and E. cloacae
Format: cell-based
Method: MICs for laterocidine and its various analogues were determined by broth microdilution[49] for the following polymyxin-susceptible ATCC and clinical isolates: P. aeruginosa FADDI-PA022, FADDI-PA001, FADDI-PA025, FADDI-PA070, FADDI-PA060; A. baumannii FADDI-AB134, FADDI-AB034, FADDI-AB030, FADDI-AB174, FADDI-AB241; K. pneumoniae FADDI-KP032, FADDI-KP022, BM1, FADDI-KP065, FADDI-KP064, FADDI-KP003; and E. cloacae FADDI-EC001, FADDI-EC003, and FADDI-EC006. Experiments were performed with cation-adjusted Mueller–Hinton broth (CAMHB) in 96-well polystyrene microtiter plates. Wells were inoculated with 100 μL of bacterial suspension prepared in CAMHB (containing ∼10^6 CFU/mL) and 100 μL of CAMHB containing increasing concentrations of polymyxins (0–32 μg/mL). MIC measurements were performed in duplicate, with the MIC being the lowest concentration at which visible growth was inhibited following 18–20 h of incubation at 37 °C. Bacterial killing kinetics was investigated over 24 h as described previously.[50]

[1] = compared with native laterocidine

SMILES	MICs against P. aeruginosa and A. baumannii (range) [µg/mL]	fold increase in MIC (loss of activity) against all strains / all species [1]	also measured
CC[C@H](C)[C@@H]1NC(=O)[C@@H](N)[C@@H](C)OC(=O)CNC(=O)CNC(=O)[C@H](CC(N)=O)NC1=O [Peptide 13] (HELM PEPTIDE1{[C[C@@H](O[*:3])[C@H](N)C(=O)[*:2]].I.N.G.G}$PEPTIDE1,PEPTIDE1,1:R3-5:R2$$$V2.0)	–	–	MICs against all tested strains (range): > 32 µg/mL
CC[C@H](C)[C@@H]1NC(=O)[C@@H](NC(=O)[C@H](Cc2c[nH]c3ccccc23)NC(=O)[C@@H](CCCN)NC(=O)CNC(=O)[C@H](CCCN)NC(=O)[C@@H](CCCN)NC(=O)[C@@H](Cc2c[nH]c3ccccc23)NC(=O)[C@@H](Cc2ccc(O)cc2)NC(=O)[C@H](N)CO)[C@@H](C)OC(=O)CNC(=O)CNC(=O)[C@H](CC(N)=O)NC1=O [Peptide 14] (H-[dS][dY][dW][dOrn][Orn]G[dOrn]WTINGG; ester 9-C)	–	–	MICs against all tested strains (range): > 32 µg/mL
CCCCCCCCC(=O)N[C@H](CO)C(=O)N[C@H](Cc1ccc(O)cc1)C(=O)N[C@H](Cc1c[nH]c2ccccc12)C(=O)N[C@H](CCCN)C(=O)N[C@@H](CCCN)C(=O)NCC(=O)N[C@H](CCCN)C(=O)N[C@@H](Cc1c[nH]c2ccccc12)C(=O)N[C@H]1CNC(=O)CNC(=O)CNC(=O)[C@H](CC(N)=O)NC(=O)[C@H]([C@@H](C)CC)NC1=O [Peptide 16] (Nonanoyl-[dS][dY][dW][dOrn][Orn]G[dOrn]W[Dap]INGG; lactam 9-C)	> 32	–	–
CCCCCCCCC(=O)N[C@H](CO)C(=O)N[C@H](Cc1ccc(O)cc1)C(=O)N[C@H](Cc1c[nH]c2ccccc12)C(=O)N[C@H](CCCN)C(=O)N[C@@H](CCCN)C(=O)NCC(=O)N[C@H](CCCN)C(=O)N[C@@H](Cc1c[nH]c2ccccc12)C(=O)N[C@@H]1C(=O)N[C@@H]([C@@H](C)CC)C(=O)N[C@@H](CC(N)=O)C(=O)NCC(=O)NCC(=O)N[C@@H]1C [Peptide 17]	> 32	–	–
CCCCCCCCC(=O)N[C@H](CO)C(=O)N[C@H](Cc1ccc(O)cc1)C(=O)N[C@H](Cc1c[nH]c2ccccc12)C(=O)N[C@H](CCCN)C(=O)N[C@@H](CCCN)C(=O)NCC(=O)N[C@H](CCCN)C(=O)N[C@@H](Cc1c[nH]c2ccccc12)C(=O)N[C@@H]1C(=O)N[C@@H]([C@@H](C)CC)C(=O)N[C@@H](CC(N)=O)C(=O)NCC(=O)N[C@H](C(=O)O)CSSC1(C)C [Peptide 18] (Nonanoyl-[dS][dY][dW][dOrn][Orn]G[dOrn]W[Pen]INGC-OH; disulfide 9-13; C-terminus assumed)	–	2–8 fold	–
CCCCCCCCC(=O)N[C@H](CO)C(=O)N[C@H](Cc1ccc(O)cc1)C(=O)N[C@H](Cc1c[nH]c2ccccc12)C(=O)N[C@H](CCCN)C(=O)N[C@@H](CCCN)C(=O)NCC(=O)N[C@H](CCCN)C(=O)N[C@@H](Cc1c[nH]c2ccccc12)C(=O)N[C@H](C(=O)N[C@H](C(=O)N[C@@H](CC(N)=O)C(=O)NCC(=O)NCC(=O)O)[C@@H](C)CC)[C@@H](C)O [Peptide 19] (Nonanoyl-[dS][dY][dW][dOrn][Orn]G[dOrn]WTINGG-OH)	8 to 32	–	MICs against K. pneumoniae and E. cloacae (range): 4 to 32 µg/mL; fold increase in MIC for K. pneumoniae and E. cloacae [1]: 2–4 fold; fold increase in MIC for P. aeruginosa and A. baumannii [1]: 2–8 fold
CCCCCCCCC(=O)N[C@H](CO)C(=O)N[C@H](Cc1ccc(O)cc1)C(=O)N[C@H](Cc1c[nH]c2ccccc12)C(=O)N[C@H](CCCN)C(=O)N[C@@H](CCCN)C(=O)NCC(=O)N[C@H](CCCN)C(=O)N[C@@H](Cc1c[nH]c2ccccc12)C(=O)N[C@H](C(=O)N[C@H](C(=O)N[C@@H](CC(N)=O)C(=O)NCC(=O)NCC(N)=O)[C@@H](C)CC)[C@@H](C)O [Peptide 20] (Nonanoyl-[dS][dY][dW][dOrn][Orn]G[dOrn]WTINGG-NH2)	–	–	MICs against P. aeruginosa, K. pneumoniae, and E. cloacae (range): 4 to 32 µg/mL; fold increase in MIC against P. aeruginosa, K. pneumoniae, and E. cloacae [1]: 2–4 fold
CCCCCCCCC(=O)N[C@H](CO)C(=O)N[C@H](Cc1ccc(O)cc1)C(=O)N[C@H](Cc1c[nH]c2ccccc12)C(=O)N[C@H](CCCN)C(=O)N[C@@H](CCCN)C(=O)NCC(=O)N[C@H](CCCN)C(=O)N[C@@H](Cc1c[nH]c2ccccc12)C(=O)N[C@H](C(=O)N[C@H](C(=O)N[C@@H](CC(N)=O)C(=O)NCC(N)=O)[C@@H](C)CC)[C@@H](C)O [Peptide 21] (Nonanoyl-[dS][dY][dW][dOrn][Orn]G[dOrn]WTING-NH2)	–	–	fold increase in MIC against P. aeruginosa, K. pneumoniae, and E. cloacae [1]: 1–2 fold
CCCCCCCCC(=O)N[C@H](CO)C(=O)N[C@H](Cc1ccc(O)cc1)C(=O)N[C@H](Cc1c[nH]c2ccccc12)C(=O)N[C@H](CCCN)C(=O)N[C@@H](CCCN)C(=O)NCC(=O)N[C@H](CCCN)C(=O)N[C@@H](Cc1c[nH]c2ccccc12)C(=O)N[C@@H]1C(=O)N[C@@H]([C@@H](C)CC)C(=O)N[C@@H](CC(N)=O)C(=O)N[C@@H](C)C(=O)NCC(=O)O[C@@H]1C [Peptide 25] (Nonanoyl-[dS][dY][dW][dOrn][Orn]G[dOrn]WTINAG; ester 9-C)	2 to 16	no more than 1 fold	–
CCCCCCCCC(=O)N[C@H](CO)C(=O)N[C@H](Cc1ccc(O)cc1)C(=O)N[C@H](Cc1c[nH]c2ccccc12)C(=O)N[C@H](CCCN)C(=O)N[C@@H](CCCN)C(=O)NCC(=O)N[C@H](CCCN)C(=O)N[C@@H](Cc1c[nH]c2ccccc12)C(=O)N[C@@H]1C(=O)N[C@@H]([C@@H](C)CC)C(=O)N[C@@H](C)C(=O)NCC(=O)NCC(=O)O[C@@H]1C [Peptide 26] (Nonanoyl-[dS][dY][dW][dOrn][Orn]G[dOrn]WTIAGG; ester 9-C)	2 to 16	no more than 1 fold	–
CCCCCCCCC(=O)N[C@H](CO)C(=O)N[C@H](Cc1ccc(O)cc1)C(=O)N[C@H](Cc1c[nH]c2ccccc12)C(=O)N[C@H](CCCN)C(=O)N[C@@H](CCCN)C(=O)NCC(=O)N[C@H](C)C(=O)N[C@@H](Cc1c[nH]c2ccccc12)C(=O)N[C@@H]1C(=O)N[C@@H]([C@@H](C)CC)C(=O)N[C@@H](CC(N)=O)C(=O)NCC(=O)NCC(=O)O[C@@H]1C [Peptide 29] (Nonanoyl-[dS][dY][dW][dOrn][Orn]G[dA]WTINGG; ester 9-C)	–	2–4 fold	–
CCCCCCCCC(=O)N[C@H](CO)C(=O)N[C@H](Cc1ccc(O)cc1)C(=O)N[C@H](Cc1c[nH]c2ccccc12)C(=O)N[C@H](CCCN)C(=O)N[C@@H](C)C(=O)NCC(=O)N[C@H](CCCN)C(=O)N[C@@H](Cc1c[nH]c2ccccc12)C(=O)N[C@@H]1C(=O)N[C@@H]([C@@H](C)CC)C(=O)N[C@@H](CC(N)=O)C(=O)NCC(=O)NCC(=O)O[C@@H]1C [Peptide 31] (Nonanoyl-[dS][dY][dW][dOrn]AG[dOrn]WTINGG; ester 9-C)	–	2–8 fold	–
CCCCCCCCC(=O)N[C@H](CO)C(=O)N[C@H](Cc1ccc(O)cc1)C(=O)N[C@H](Cc1c[nH]c2ccccc12)C(=O)N[C@H](C)C(=O)N[C@@H](CCCN)C(=O)NCC(=O)N[C@H](CCCN)C(=O)N[C@@H](Cc1c[nH]c2ccccc12)C(=O)N[C@@H]1C(=O)N[C@@H]([C@@H](C)CC)C(=O)N[C@@H](CC(N)=O)C(=O)NCC(=O)NCC(=O)O[C@@H]1C [Peptide 32] (Nonanoyl-[dS][dY][dW][dA][Orn]G[dOrn]WTINGG; ester 9-C)	–	2–8 fold	–
